Source: patent publication US20220331303A1, “USE OF AN OREXIN 2 RECEPTOR AGONIST FOR THE TREATMENT OF EXCESSIVE SLEEPINESS” (Takeda Pharmaceutical Company Limited, priority 2019, published 2022)

Tests used:
Assay type in all cases: in vivo, human
[1] = tested on: subjects with obstructive sleep apnea; assay: Safety/tolerability of single dose in subjects with OSA; conditions: single doses 44 mg and 112 mg, infusion over 9 hours, OSA patients
Text: The purpose of the study was to evaluate the pharmacokinetics (PK), pharmacodynamics (PD), safety and tolerability of a single intravenous (IV) dose of Compound A in adults who have been diagnosed with obstructive sleep apnea (OSA) and who are experiencing excessive daytime sleepiness (EDS) despite adequate use of CPAP. Twenty-five patients were randomized, and 23 patients completed the study. All patients at entry were having EDS despite being adequately controlled by CPAP for their sleep apnea.
On Day 1 of Treatment Period 1, all eligible subjects were randomized and received the first dose of study drug. Compound A or placebo was administered as a single 9-hour IV infusion commencing at approximately 08:00. On each dosing day (Study Days 1, 3, and 5), 40-minute MWT sessions were performed at 2, 4, 6, and 8 hours after the start of the infusion. There was a minimum 24-hour washout interval between the end of the infusion and the commencement of treatment in subsequent treatment periods to allow for complete elimination of the preceding treatment effect. […] Blood samples for determination of Compound A plasma concentrations were collected predose and at specified time points postdose, Safety assessments were recorded. During the study, AEs were recorded, clinical laboratory tests, vital signs, and safety ECGs were obtained. […]

[2] = tested on: subjects with obstructive sleep apnea; assay: MWT in subjects with OSA experiencing EDS despite CPAP; conditions: single 9-hour IV infusion
Description: The treatment periods began on Day 1 of Treatment Period 1 (Study Day 1) with Treatment Periods 2 and 3 commencing on Study Days 3 and 5, respectively. In the morning of Day 1 of Treatment Period 1, eligible subjects were randomized to 1 of the 6 sequence groups as listed in Table 36. After randomization, the subject was dosed in 3 treatment periods according to the order defined by the sequence group to which he/she was randomized. On Day 1 of each treatment period, Compound A or placebo was administered as a single 9-hour IV infusion commencing at approximately 08:00. The infusion was terminated at approximately 17:00. On Day 1 of each treatment period, four 40-minute maintenance of wakefulness test (MWT) sessions was performed at 2, 4, 6, and 8 hours after the start of the infusion. Subjects were required to stay awake in between the MWT sessions.
On Day 1 of Treatment Period 1, all eligible subjects were randomized and received the first dose of study drug. Compound A or placebo was administered as a single 9-hour IV infusion commencing at approximately 08:00. […] Blood samples for determination of Compound A plasma concentrations were collected predose and at specified time points postdose, Safety assessments were recorded. During the study, AEs were recorded, clinical laboratory tests, vital signs, and safety ECGs were obtained. […]

[3] = tested on: patients with NT2; assay: Safety/tolerability of multiple IV doses in patients with NT2
Description: (§1) The purpose of the study was to evaluate the safety, tolerability, pharmacokinetics and pharmacodynamics of Compound A after multiple days of IV administration in patients with NT2. NT2 patients were evaluated in Cohort C1 and C2 (Table 30). Compound A or placebo were administered via IV infusion over 9 hours once daily for 7 days. A total of 14 patients with NT2 were treated with Compound A or placebo (5, 4, and 5 subjects in the placebo, Compound A 44 mg, and Compound A 112 mg groups, respectively). In this part, potential efficacy of Compound A was evaluated with MWT, ESS, KSS, night-time PSG (NPSG), and PGI-C as an exploratory PD assessment.

[4] = tested on: patients with NT2; assay: KSS in patients with NT2; conditions: 9 hours postdose
Description: as §1

[5] = multiple IV administrations of up to 112 mg, NT2 patients

## COC(=O)N1CCC[C@H](NS(C)(=O)=O)[C@@H]1CO[C@H]1CC[C@@H](c2ccccc2)CC1 [Compound A, methyl (2R,3S)-3-((methylsulfonyl)amino)-2-(((cis-4-phenylcyclohexyl)oxy)methyl)piperidine-1-carboxylate]
[1]
  Safety and tolerability: safe and well tolerated
[2]; Compound A 44 mg
  Mean placebo-adjusted increase in sleep latency in the MWT: 22 min
[2]; Compound A 112 mg
  Mean placebo-adjusted increase in sleep latency in the MWT: 28 min
[3]; Compound A 112 mg group, mild intensity
  Number of TEAE related to BP (blood pressure increased): 1
[3]; [5]
  SAE / TEAE leading to study drug discontinuation: no SAE, and no TEAE leading to study drug discontinuation
  Safety and tolerability: safe and well tolerated
[4]; Compound A 44 mg, Day 1
  Mean change from baseline in KSS: −0.5
[4]; Compound A 44 mg, Day 7
  Mean change from baseline in KSS: 0.0
[4]; Compound A 112 mg, Day 1
  Mean change from baseline in KSS: −1.0
[4]; Compound A 112 mg, Day 7
  Mean change from baseline in KSS: −0.8
